In US20230348376A1 (TEIJIN PHARMA LIMITED, priority 2020, published 2023):

tested on: rat oligodendrocyte progenitor cells; assay: Promotive activity of rat oligodendrocyte progenitor cell differentiation-2 (immunostaining of MBP); format: cell-based; conditions: Test 3; vitamin D derivative 2 μM, T3 30 nM; 4 days
Procedure: The promotive activity of oligodendrocyte progenitor cell (OPC) differentiation of the vitamin D derivatives was evaluated by immunostaining of MBP.
Subsequently, oligodendrocyte progenitor cell separation medium was added to the flask, and the mixture was similarly shaken for about 22 hours (37° C., 200 rpm), and the supernatant was collected to prepare oligodendrocyte progenitor cells.

SMILES	Mean (number of MBP-positive cells/number of Hoechst33342-positive cells)
C[C@H](CN1CCCC[C@@H]1C)[C@H]1CC[C@H]2/C(=C/C=C3C[C@@H](O)C[C@H](O)C3)CCC[C@]12C [Compound G001, (1R,3R)-5-(2-((1R,3aS,7aR,E)-7a-methyl-1-((S)-1-((S)-2-methylpiperidin-1-yl)propan-2-yl)octahydro-4H-inden-4-ylidene)ethylidene)cyclohexane-1,3-diol]	0.34
C[C@H](CN1CCCC[C@H]1C)[C@H]1CC[C@H]2/C(=C/C=C3C[C@@H](O)C[C@H](O)C3)CCC[C@]12C [Compound G002, (1R,3R)-5-(2-((1R,3aS,7aR,E)-7a-methyl-1-((S)-1-((R)-2-methylpiperidin-1-yl)propan-2-yl)octahydro-4H-inden-4-ylidene)ethylidene)cyclohexane-1,3-diol]	0.33
C[C@H](CN1CCCCC1(C)C)[C@H]1CC[C@H]2/C(=C/C=C3C[C@@H](O)C[C@H](O)C3)CCC[C@]12C [Compound G003, (1R,3R)-5-(2-((1R,3aS,7aR,E)-1-((S)-1-(2,2-dimethylpiperidin-1-yl)propan-2-yl)-7a-methyloctahydro-4H-inden-4-ylidene)ethylidene)cyclohexane-1,3-diol]	0.47

same assay, conditions: Test 4; vitamin D derivative 2 μM, T3 30 nM; 4 days

SMILES	Mean (number of MBP-positive cells/number of Hoechst33342-positive cells)
C[C@H](CN1CCOCC12CC2)[C@H]1CC[C@H]2/C(=C/C=C3C[C@@H](O)C[C@H](O)C3)CCC[C@]12C [Compound G007, (1R,3R)-5-(2-((1R,3aS,7aR,E)-1-((S)-1-(7-oxa-4-azaspiro[2.5]octan-4-yl)propan-2-yl)-7a-methyloctahydro-4H-inden-4-ylidene)ethylidene)cyclohexane-1,3-diol]	0.34

same assay, conditions: Test 5; vitamin D derivative 2 μM, T3 30 nM; 4 days

SMILES	Mean (number of MBP-positive cells/number of Hoechst33342-positive cells)
C=C1/C(=C\C=C2/CCC[C@]3(C)[C@@H]([C@H](C)CN4CCN(C)C[C@@H]4C)CC[C@@H]23)C[C@@H](O)C[C@@H]1O [Compound F011, (1R,3S,Z)-5-(2-((1R,3aS,7aR,E)-1-((S)-1-((S)-2,4-dimethylpiperazin-1-yl)propan-2-yl)-7a-methyloctahydro-4H-inden-4-ylidene)ethylidene)-4-methylenecyclohexane-1,3-diol]	0.26
C[C@H](CN1CCOC[C@@H]1C1CC1)[C@H]1CC[C@H]2/C(=C/C=C3C[C@@H](O)C[C@H](O)C3)CCC[C@]12C [Compound G008, (1R,3R)-5-(2-((1R,3aS,7aR,E)-1-((S)-1-((S)-3-cyclopropylmorpholino)propan-2-yl)-7a-methyloctahydro-4H-inden-4-ylidene)ethylidene)cyclohexane-1,3-diol]	0.36
C[C@H](CN1CCN(C)C[C@@H]1C)[C@H]1CC[C@H]2/C(=C/C=C3C[C@@H](O)C[C@H](O)C3)CCC[C@]12C [Compound G011, (1R,3R)-5-(2-((1R,3aS,7aR,E)-1-((S)-1-((S)-2,4-dimethylpiperazin-1-yl)propan-2-yl)-7a-methyloctahydro-4H-inden-4-ylidene)ethylidene)cyclohexane-1,3-diol]	0.22
C[C@H](CN1CCN(C)C[C@H]1C)[C@H]1CC[C@H]2/C(=C/C=C3C[C@@H](O)C[C@H](O)C3)CCC[C@]12C [Compound G012, (1R,3R)-5-(2-((1R,3aS,7aR,E)-1-((S)-1-((R)-2,4-dimethylpiperazin-1-yl)propan-2-yl)-7a-methyloctahydro-4H-inden-4-ylidene)ethylidene)cyclohexane-1,3-diol]	0.22

same assay, conditions: Test 6; vitamin D derivative 2 μM, T3 30 nM; 4 days

SMILES	Mean (number of MBP-positive cells/number of Hoechst33342-positive cells)
C[C@H](CN1CCC[C@@H]1C(C)(C)O)[C@H]1CC[C@H]2/C(=C/C=C3C[C@@H](O)C[C@H](O)C3)CCC[C@]12C [Compound G013, (1R,3R)-5-(2-((1R,3aS,7aR,E)-1-((S)-1-((R)-2-(2-hydroxypropan-2-yl)pyrrolidin-1-yl)propan-2-yl)-7a-methyloctahydro-4H-inden-4-ylidene)ethylidene)cyclohexane-1,3-diol]	0.55
C[C@H](CN1CCC[C@H]1C(C)(C)O)[C@H]1CC[C@H]2/C(=C/C=C3C[C@@H](O)C[C@H](O)C3)CCC[C@]12C [Compound G014, (1R,3R)-5-(2-((1R,3aS,7aR,E)-1-((S)-1-((S)-2-(2-hydroxypropan-2-yl)pyrrolidin-1-yl)propan-2-yl)-7a-methyloctahydro-4H-inden-4-ylidene)ethylidene)cyclohexane-1,3-diol]	0.44
COC(C)(C)[C@H]1CCCN1C[C@@H](C)[C@H]1CC[C@H]2/C(=C/C=C3C[C@@H](O)C[C@H](O)C3)CCC[C@]12C [Compound G015, (1R,3R)-5-(2-((1R,3aS,7aR,E)-1-((S)-1-((R)-2-(2-methoxypropan-2-yl)pyrrolidin-1-yl)propan-2-yl)-7a-methyloctahydro-4H-inden-4-ylidene)ethylidene)cyclohexane-1,3-diol]	0.52
C[C@H](CCN1CCCC[C@@H]1C)[C@H]1CC[C@H]2/C(=C/C=C3C[C@@H](O)C[C@H](O)C3)CCC[C@]12C [Compound G017, (1R,3R)-5-(2-((1R,3aS,7aR,E)-7a-methyl-1-((R)-4-((S)-2-methylpiperidin-1-yl)butan-2-yl)octahydro-4H-inden-4-ylidene)ethylidene)cyclohexane-1,3-diol]	0.52
C[C@H](CCN1CCCC[C@H]1C)[C@H]1CC[C@H]2/C(=C/C=C3C[C@@H](O)C[C@H](O)C3)CCC[C@]12C [Compound G018, (1R,3R)-5-(2-((1R,3aS,7aR,E)-7a-methyl-1-((R)-4-((R)-2-methylpiperidin-1-yl)butan-2-yl)octahydro-4H-inden-4-ylidene)ethylidene)cyclohexane-1,3-diol]	0.48

same assay, conditions: Test 7; vitamin D derivative 2 μM, T3 30 nM; 4 days

SMILES	Mean (number of MBP-positive cells/number of Hoechst33342-positive cells)
C=C1/C(=C\C=C2/CCC[C@]3(C)[C@@H]([C@H](C)CN4CCN(C)C[C@H]4C)CC[C@@H]23)C[C@@H](O)C[C@@H]1O [Compound F012, (1R,3S,Z)-5-(2-((1R,3aS,7aR,E)-1-((S)-1-((R)-2,4-dimethylpiperazin-1-yl)propan-2-yl)-7a-methyloctahydro-4H-inden-4-ylidene)ethylidene)-4-methylenecyclohexane-1,3-diol]	0.23
COC(C)(C)[C@@H]1CCCN1C[C@@H](C)[C@H]1CC[C@H]2/C(=C/C=C3C[C@@H](O)C[C@H](O)C3)CCC[C@]12C [Compound G016, (1R,3R)-5-(2-((1R,3aS,7aR,E)-1-((S)-1-((S)-2-(2-methoxypropan-2-yl)pyrrolidin-1-yl)propan-2-yl)-7a-methyloctahydro-4H-inden-4-ylidene)ethylidene)cyclohexane-1,3-diol]	0.37
C=C1[C@H](O)CC(=C/C=C2\CCC[C@]3(C)[C@@H]([C@H](C)CN4CCCC[C@@H]4C)CC[C@@H]23)C[C@H]1O [Compound H001, (1R,3R)-5-(2-((1R,3aS,7aR,E)-7a-methyl-1-((S)-1-((S)-2-methylpiperidin-1-yl)propan-2-yl)octahydro-4H-inden-4-ylidene)ethylidene)-2-methylenecyclohexane-1,3-diol]	0.48

same assay, conditions: Test 8; vitamin D derivative 2 μM, T3 30 nM; 4 days

SMILES	Mean (number of MBP-positive cells/number of Hoechst33342-positive cells)
C=C1/C(=C\C=C2/CCC[C@]3(C)[C@@H]([C@H](C)CN4CCC[C@H]4C(C)(C)O)CC[C@@H]23)C[C@@H](O)C[C@@H]1O [Compound F014, (1R,3S,Z)-5-(2-((1R,3aS,7aR,E)-1-((S)-1-((S)-2-(2-hydroxypropan-2-yl)pyrrolidin-1-yl)propan-2-yl)-7a-methyloctahydro-4H-inden-4-ylidene)ethylidene)-4-methylenecyclohexane-1,3-diol]	0.29
C=C1/C(=C\C=C2/CCC[C@]3(C)[C@@H]([C@H](C)CN4CCC[C@@H]4C(C)(C)OC)CC[C@@H]23)C[C@@H](O)C[C@@H]1O [Compound F015, (1R,3S,Z)-5-(2-((1R,3aS,7aR,E)-1-((S)-1-((R)-2-(2-methoxypropan-2-yl)pyrrolidin-1-yl)propan-2-yl)-7a-methyloctahydro-4H-inden-4-ylidene)ethylidene)-4-methylenecyclohexane-1,3-diol]	0.35
C=C1/C(=C\C=C2/CCC[C@]3(C)[C@@H]([C@H](C)CN4CCC[C@H]4C(C)(C)OC)CC[C@@H]23)C[C@@H](O)C[C@@H]1O [Compound F016, (1R,3S,Z)-5-(2-((1R,3aS,7aR,E)-1-((S)-1-((S)-2-(2-methoxypropan-2-yl)pyrrolidin-1-yl)propan-2-yl)-7a-methyloctahydro-4H-inden-4-ylidene)ethylidene)-4-methylenecyclohexane-1,3-diol]	0.32

same assay, conditions: Test 9; vitamin D derivative 2 μM, T3 30 nM; 4 days

SMILES	Mean (number of MBP-positive cells/number of Hoechst33342-positive cells)
C=C1/C(=C\C=C2/CCC[C@]3(C)[C@@H]([C@H](C)CN4CCC[C@@H]4C(C)(C)O)CC[C@@H]23)C[C@@H](O)C[C@@H]1O [Compound F013, (1R,3S,Z)-5-(2-((1R,3aS,7aR,E)-1-((S)-1-((R)-2-(2-hydroxypropan-2-yl)pyrrolidin-1-yl)propan-2-yl)-7a-methyloctahydro-4H-inden-4-ylidene)ethylidene)-4-methylenecyclohexane-1,3-diol]	0.31
C=C1[C@H](O)CC(=C/C=C2\CCC[C@]3(C)[C@@H]([C@H](C)CN4CCCC[C@H]4C)CC[C@@H]23)C[C@H]1O [Compound H002, (1R,3R)-5-(2-((1R,3aS,7aR,E)-7a-methyl-1-((S)-1-((R)-2-methylpiperidin-1-yl)propan-2-yl)octahydro-4H-inden-4-ylidene)ethylidene)-2-methylenecyclohexane-1,3-diol]	0.39
